# The supplement of paper PMC10307832
# What was measured:
# Experiment in all cases: relative viability (nuclei count vs DMSO), 5 days (fraction); higher = more cells survive
# Dabrafenib + Bortezomib = compound: CC(C)(C)c1nc(-c2cccc(NS(=O)(=O)c3c(F)cccc3F)c2F)c(-c2ccnc(N)n2)s1 [Dabrafenib] + CC(C)C[C@H](NC(=O)[C@H](Cc1ccccc1)NC(=O)c1cnccn1)B(O)O [Bortezomib] (partner 0.002 µM)
# In short: (§1)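 Each reported value is a median over duplicate plates. It expresses relative viability: treated-well nuclei count divided by vehicle-well nuclei count. Lung cancer cell lines in 1536-well plates were dosed by pin tool a day after seeding, alone with one drug or with a fixed anchor-drug dose plus five library-drug doses (not always all listed) in √10 steps, and nuclei were counted after 5 days.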
# Dabrafenib + Lapatinib = compound: CC(C)(C)c1nc(-c2cccc(NS(=O)(=O)c3c(F)cccc3F)c2F)c(-c2ccnc(N)n2)s1 [Dabrafenib] + CS(=O)(=O)CCNCc1ccc(-c2ccc3ncnc(Nc4ccc(OCc5cccc(F)c5)c(Cl)c4)c3c2)o1 [Lapatinib] (partner 2 µM)
# In short: as §1
# Dabrafenib + Tozasertib = compound: CC(C)(C)c1nc(-c2cccc(NS(=O)(=O)c3c(F)cccc3F)c2F)c(-c2ccnc(N)n2)s1 [Dabrafenib] + Cc1cc(Nc2cc(N3CCN(C)CC3)nc(Sc3ccc(NC(=O)C4CC4)cc3)n2)n[nH]1 [Tozasertib] (partner 0.1 µM)
# In short: as §1
# Dabrafenib + Olaparib = compound: CC(C)(C)c1nc(-c2cccc(NS(=O)(=O)c3c(F)cccc3F)c2F)c(-c2ccnc(N)n2)s1 [Dabrafenib] + O=C(c1cc(Cc2n[nH]c(=O)c3ccccc23)ccc1F)N1CCN(C(=O)C2CC2)CC1 [Olaparib] (partner 8 µM)
# In short: as §1
Cell Line,relative viability (Dabrafenib + Bortezomib; first compound 0.003 µM),relative viability (Dabrafenib + Bortezomib; first compound 0.009487 µM),relative viability (Dabrafenib + Bortezomib; first compound 0.03 µM),relative viability (Dabrafenib + Bortezomib; first compound 0.09487 µM),relative viability (Dabrafenib + Bortezomib; first compound 0.3 µM),relative viability (Dabrafenib + Lapatinib; first compound 0.003 µM),relative viability (Dabrafenib + Lapatinib; first compound 0.009487 µM),relative viability (Dabrafenib + Lapatinib; first compound 0.03 µM),relative viability (Dabrafenib + Lapatinib; first compound 0.09487 µM),relative viability (Dabrafenib + Lapatinib; first compound 0.3 µM),relative viability (Dabrafenib + Tozasertib; first compound 0.003 µM),relative viability (Dabrafenib + Tozasertib; first compound 0.009487 µM),relative viability (Dabrafenib + Tozasertib; first compound 0.03 µM),relative viability (Dabrafenib + Tozasertib; first compound 0.09487 µM),relative viability (Dabrafenib + Tozasertib; first compound 0.3 µM),relative viability (Dabrafenib + Olaparib; first compound 0.003 µM),relative viability (Dabrafenib + Olaparib; first compound 0.009487 µM),relative viability (Dabrafenib + Olaparib; first compound 0.03 µM),relative viability (Dabrafenib + Olaparib; first compound 0.09487 µM),relative viability (Dabrafenib + Olaparib; first compound 0.3 µM)
NCI-H838,0.74,0.973,0.417,0.715,1.09,0.816,1.17,0.871,0.855,1.1,0.29,0.34,0.239,0.255,0.258,0.772,0.792,0.735,0.68,0.873
NCI-H1355,–,1.22,1.12,–,1.29,–,1.11,1.03,–,1.19,–,0.677,0.519,0.439,0.577,–,0.763,0.769,0.639,0.718
NCI-H1437,0.299,0.529,0.518,0.534,0.516,0.687,0.756,0.911,0.785,0.816,0.496,0.385,0.412,0.409,0.416,0.651,0.62,0.643,0.592,0.618
NCI-H1650,0.183,0.214,0.24,0.177,0.217,0.632,1.12,0.639,0.953,1.11,0.524,0.563,0.408,0.419,0.384,0.827,0.721,0.764,0.794,1.01
NCI-H1651,0.857,0.887,0.972,0.946,0.862,0.849,0.818,0.84,0.938,0.834,0.741,0.763,0.57,0.668,0.679,0.177,0.186,0.176,0.147,0.165
NCI-H1666,0.806,–,0.957,0.859,0.814,0.547,–,0.623,0.629,0.745,0.562,0.637,0.678,0.672,0.672,0.783,0.753,0.776,0.746,0.799
NCI-H1734,–,0.936,0.549,0.757,0.828,–,1.02,0.629,0.747,0.785,–,0.248,0.251,0.312,0.271,–,0.69,0.504,0.465,0.557
NCI-H1755,0.972,0.924,0.908,0.914,0.903,0.957,1.07,0.928,1,0.986,0.555,0.659,0.539,0.559,0.614,0.845,0.819,0.788,0.859,0.886
NCI-H1915,0.975,0.99,0.899,0.584,0.502,1.04,0.985,0.781,0.654,0.673,0.46,0.458,0.391,0.328,0.41,0.276,0.233,0.214,0.215,0.268
NCI-H1975,0.333,0.432,0.374,0.49,0.429,0.914,0.858,0.881,0.84,0.786,0.778,0.769,0.714,0.659,0.689,0.723,0.758,0.706,0.681,0.718
NCI-H1993,1.2,1.46,1.31,1.24,1.7,0.696,0.729,0.754,0.713,0.882,0.484,0.586,0.504,0.571,0.606,1.17,1.1,1.09,1.06,1.31
NCI-H2009,0.342,1.06,0.907,0.554,0.517,0.311,1,0.872,0.606,0.484,0.703,0.759,0.672,0.649,0.62,0.638,0.626,0.625,0.439,0.516
NCI-H2023,0.78,1.09,1.04,0.977,1.02,0.617,1.09,0.979,0.79,0.961,0.376,0.382,0.35,0.321,0.356,0.478,0.432,0.492,0.46,0.458
NCI-H2085,1.03,1.13,0.896,0.976,1.04,0.694,0.821,0.58,0.74,0.784,0.76,0.908,0.734,0.75,0.706,0.759,0.769,0.823,0.71,0.854
NCI-H2087,0.814,0.752,0.564,0.648,0.761,0.689,1.08,0.769,0.77,0.785,–,0.306,0.254,0.302,0.264,–,0.535,0.541,0.385,0.532
NCI-H2126,1.1,1.1,1.12,1.13,1.15,0.735,0.783,0.75,0.842,0.89,0.809,0.865,0.858,0.862,0.882,0.906,0.884,0.871,0.878,0.946
NCI-H2228,0.897,0.829,0.859,0.912,1.03,0.856,1.2,1.01,1.01,1.14,–,0.246,0.248,0.236,0.244,0.757,0.464,0.615,0.439,0.693
